Source: patent US6737383B1, “Herbicidal oxadiazolidines” (priority 1999, dated 2004)

Assays:
velvetleaf = assay: Test B pre/postemergence velvetleaf; type: in vivo, Abutilon theophrasti
Outline: (§1)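 Response is a visual 0-to-10 score relative to untreated plants, where 0 means no effect and 10 means complete control, taken twelve to sixteen days after application. Treatments went onto soil at planting and onto foliage of 1- to 4-leaf plants, using a surfactant-containing non-phytotoxic solvent.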

blackgrass = assay: Test B pre/postemergence blackgrass; type: in vivo, Alopecurus myosuroides
Outline: as §1

corn = assay: Test B pre/postemergence corn; type: in vivo, Zea mays
Outline: as §1

purple nutsedge = assay: Test B pre/postemergence purple nutsedge; type: in vivo, Cyperus rotundus
Outline: as §1

surinam grass = assay: Test B pre/postemergence surinam grass; type: in vivo, Brachiaria decumbens
Outline: as §1

morningglory = assay: Test B pre/postemergence morningglory; type: in vivo, Ipomoea hederacea
Outline: as §1

sugar beet = assay: Test B pre/postemergence sugar beet; type: in vivo, Beta vulgaris
Outline: as §1

crabgrass = assay: Test B pre/postemergence crabgrass; type: in vivo, Digitaria sanguinalis
Outline: as §1

bedstraw = assay: Test B pre/postemergence bedstraw; type: in vivo, Galium aparine; details: Rate 62 g/ha
Outline: as §1

wild oat = assay: Test B pre/postemergence wild oat; type: in vivo, Avena fatua
Outline: as §1

pigweed = assay: Test B pre/postemergence pigweed; type: in vivo, Amaranthus retroflexus
Outline: as §1

soybean = assay: Test B pre/postemergence soybean; type: in vivo, Glycine max
Outline: as §1

rape = assay: Test B pre/postemergence rape; type: in vivo, Brassica napus
Outline: as §1

cocklebur = assay: Test B pre/postemergence cocklebur; type: in vivo, Xanthium strumarium
Outline: as §1

wheat = assay: Test B pre/postemergence wheat; type: in vivo, Triticum aestivum
Outline: as §1

giant foxtail = assay: Test B pre/postemergence giant foxtail; type: in vivo, Setaria faberii
Outline: as §1

[1] = Postemergence, Rate 62 g/ha, scale of 0 to 10, 0 is no effect, 10 is complete control
[2] = Postemergence, Rate 125 g/ha, scale 0 to 10, 0 is no effect, 10 is complete control
[3] = Postemergence, Rate 500 g/ha, scale 0 to 10, 0 is no effect, 10 is complete control
[4] = Preemergence, Rate 62 g/ha, scale of 0 to 10 where 0 is no effect and 10 is complete control
[5] = Preemergence, Rate 125 g/ha, scale 0 to 10, 0 is no effect, 10 is complete control
[6] = Preemergence, Rate 500 g/ha, scale of 0 to 10 where 0 is no effect and 10 is complete control
[7] = Rate 250 g/ha, Postemergence, scale of 0 to 10 where 0 is no effect and 10 is complete control

SMILES: CCCCn1c(=O)on(C(=O)N(c2ccc(Cl)cc2)C(C)C)c1=O [Compound 527]
- Velvetleaf plant response rating (velvetleaf; [1]): 3
- Velvetleaf plant response rating (velvetleaf; [2]): 2
- Plant response rating, Velvetleaf (velvetleaf; [3]): 3
- Plant response rating, Velvetleaf (velvetleaf; [4]): 0
- Velvetleaf plant response rating (velvetleaf; [5]): 2
- Velvetleaf plant response rating (0 to 10 scale) (velvetleaf; Preemergence, Rate 250 g/ha): 2
- Velvetleaf plant response rating (velvetleaf; [6]): 2
- Plant response rating, Velvetleaf (velvetleaf; [7]): 3
- Blackgrass plant response rating (blackgrass; [1]): 0
- Blackgrass plant response rating (blackgrass; [2]): 3
- Plant response rating, Blackgrass (blackgrass; [3]): 7
- Plant response rating, Blackgrass (blackgrass; [4]): 0
- Blackgrass plant response rating (blackgrass; [5]): 2
- Blackgrass plant response rating (0 to 10 scale) (blackgrass; Preemergence, Rate 250 g/ha): 2
- Plant response rating, Blackgrass (blackgrass; [7]): 4
- Corn plant response rating (corn; [1]): 0
- Corn plant response rating (corn; [2]): 0
- Plant response rating, Corn (corn; [3]): 0
- Plant response rating, Corn (corn; [4]): 0
- Corn plant response rating (corn; [5]): 0
- Corn plant response rating (0 to 10 scale) (corn; Preemergence, Rate 250 g/ha): 0
- Corn plant response rating (corn; [6]): 0
- Plant response rating, Corn (corn; [7]): 0
- Nutsedge plant response rating (purple nutsedge; [1]): 0
- Plant response rating, Nutsedge (purple nutsedge; [4]): 0
- Nutsedge plant response rating (purple nutsedge; [5]): 0
- Nutsedge plant response rating (0 to 10 scale) (purple nutsedge; Preemergence, Rate 250 g/ha): 0
- Nutsedge plant response rating (purple nutsedge; [6]): 0
- Plant response rating, Nutsedge (purple nutsedge; [7]): 0
- B. signalgrass plant response rating (surinam grass; [1]): 0
- B. signalgrass plant response rating (surinam grass; [2]): 0
- Plant response rating, B. signalgrass (surinam grass; [3]): 9
- Plant response rating, B. signalgrass (surinam grass; [4]): 2
- B. signalgrass plant response rating (surinam grass; [5]): 2
- B. signalgrass plant response rating (0 to 10 scale, 0 is no effect, 10 is complete control) (surinam grass; Preemergence, Rate 250 g/ha): 4
- Plant response rating, B. signalgrass (surinam grass; [7]): 0
- Morningglory plant response rating (morningglory; [1]): 3
- Morningglory plant response rating (morningglory; [2]): 3
- Plant response rating, Morningglory (morningglory; [3]): 6
- Plant response rating, Morningglory (morningglory; [4]): 0
- Morningglory plant response rating (morningglory; [5]): 0
- Morningglory plant response rating (0 to 10 scale) (morningglory; Preemergence, Rate 250 g/ha): 0
- Morningglory plant response rating (morningglory; [6]): 2
- Plant response rating, Morningglory (morningglory; [7]): 5
- Sugarbeets plant response rating (sugar beet; [1]): 0
- Sugarbeets plant response rating (sugar beet; [2]): 0
- Plant response rating, Sugarbeets (sugar beet; [3]): 2
- Plant response rating, Sugarbeets (sugar beet; [4]): 0
- Sugarbeets plant response rating (sugar beet; [5]): 6
- Sugarbeets plant response rating (0 to 10 scale) (sugar beet; Preemergence, Rate 250 g/ha): 6
- Sugarbeets plant response rating (sugar beet; [6]): 6
- Plant response rating, Sugarbeets (sugar beet; [7]): 0
- Crabgrass plant response rating (crabgrass; [1]): 4
- Crabgrass plant response rating (crabgrass; [2]): 4
- Plant response rating, Crabgrass (crabgrass; [3]): 10
- Plant response rating, Crabgrass (crabgrass; [4]): 9
- Crabgrass plant response rating (crabgrass; [5]): 10
- Crabgrass plant response rating (0 to 10 scale) (crabgrass; Preemergence, Rate 250 g/ha): 10
- Crabgrass plant response rating (crabgrass; [6]): 10
- Plant response rating, Crabgrass (crabgrass; [7]): 9
- Bedstraw plant response rating (bedstraw; Postemergence, scale of 0 to 10, 0 is no effect, 10 is complete control): 0
- Plant response rating, Bedstraw (bedstraw; Preemergence, scale of 0 to 10 where 0 is no effect and 10 is complete control): 0
- Wild oats plant response rating (wild oat; [1]): 0
- Wild oats plant response rating (wild oat; [2]): 0
- Plant response rating, Wild oats (wild oat; [3]): 0
- Plant response rating, Wild oats (wild oat; [4]): 0
- Wild oats plant response rating (wild oat; [5]): 0
- Wild oats plant response rating (0 to 10 scale) (wild oat; Preemergence, Rate 250 g/ha): 3
- Plant response rating, Wild oats (wild oat; [7]): 0
- Redroot pigweed plant response rating (pigweed; [1]): 0
- Redroot pigweed plant response rating (pigweed; [2]): 0
- Plant response rating, Redroot pigweed (pigweed; [3]): 0
- Plant response rating, Redroot pigweed (pigweed; [4]): 0
- Redroot pigweed plant response rating (pigweed; [5]): 4
- Redroot pigweed plant response rating (0 to 10 scale) (pigweed; Preemergence, Rate 250 g/ha): 4
- Redroot pigweed plant response rating (pigweed; [6]): 4
- Plant response rating, Redroot pigweed (pigweed; [7]): 0
- Soybean plant response rating (soybean; [1]): 3
- Soybean plant response rating (soybean; [2]): 4
- Plant response rating, Soybean (soybean; [3]): 5
- Plant response rating, Soybean (soybean; [4]): 0
- Soybean plant response rating (soybean; [5]): 0
- Soybean plant response rating (0 to 10 scale) (soybean; Preemergence, Rate 250 g/ha): 0
- Soybean plant response rating (soybean; [6]): 0
- Plant response rating, Soybean (soybean; [7]): 4
- Rape plant response rating (rape; [1]): 0
- Rape plant response rating (rape; [2]): 0
- Plant response rating, Rape (rape; [3]): 2
- Plant response rating, Rape (rape; [4]): 0
- Rape plant response rating (rape; [5]): 2
- Rape plant response rating (0 to 10 scale) (rape; Preemergence, Rate 250 g/ha): 2
- Plant response rating, Rape (rape; [7]): 0
- Cocklebur plant response rating (cocklebur; [1]): 0
- Cocklebur plant response rating (cocklebur; [2]): 0
- Plant response rating, Cocklebur (cocklebur; [3]): 2
- Plant response rating, Cocklebur (cocklebur; [4]): 0
- Cocklebur plant response rating (cocklebur; [5]): 0
- Cocklebur plant response rating (0 to 10 scale) (cocklebur; Preemergence, Rate 250 g/ha): 0
- Cocklebur plant response rating (cocklebur; [6]): 3
- Plant response rating, Cocklebur (cocklebur; [7]): 2
- Wheat plant response rating (wheat; [1]): 0
- Wheat plant response rating (wheat; [2]): 0
- Plant response rating, Wheat (wheat; [3]): 0
- Plant response rating, Wheat (wheat; [4]): 0
- Wheat plant response rating (wheat; [5]): 0
- Wheat plant response rating (0 to 10 scale) (wheat; Preemergence, Rate 250 g/ha): 0
- Plant response rating, Wheat (wheat; [7]): 0
- Giant foxtail plant response rating (giant foxtail; [1]): 5
- Giant foxtail plant response rating (giant foxtail; [2]): 8
- Plant response rating, Giant foxtail (giant foxtail; [3]): 9
- Plant response rating, Giant foxtail (giant foxtail; [4]): 9
- Giant foxtail plant response rating (giant foxtail; [5]): 10
- Giant foxtail plant response rating (0 to 10 scale) (giant foxtail; Preemergence, Rate 250 g/ha): 10
- Giant foxtail plant response rating (giant foxtail; [6]): 10
- Plant response rating, Giant foxtail (giant foxtail; [7]): 8
